Experimental data published in patent publication US20250312332A1, “TREATMENT OF MUSCLE FIBROSIS” (University of Newcastle upon Tyne, priority 2022, published 2025).
Values joined by “and” are separate entries in the source; they are usually repeats but may differ in a detail not shown here. Identical values can stand only once. “Also recorded” adds a separate entry of the source. Like-named read-outs stand apart in the source and are kept apart here.

Experiments:
dba/2J-mdx mice [1] = test: Fasudil treatment of dba/2J-mdx mice: behaviour and weight; details: mouse, in vivo
dba/2J-mdx mice [2] = test: Quadriceps histology and immunofluorescence in dba/2J-mdx mice; assay type: in vivo, mouse
FAPs [3] = tested on: FAPs
dba/2J-mdx mice [4] = test: Cytokine array of quadriceps in dba/2J-mdx mice; assay type: in vivo, mouse; details: treated vs non-treated mice
RhoA pathway = test: RhoA downstream effectors in quadriceps of dba/2J-mdx mice (qPCR, IF); assay type: in vivo, mouse
dba/2J-mdx mice [5] = test: Flow cytometry of muscle macrophages in dba/2J-mdx mice; assay type: in vivo, mouse
FAPs [6] = assay type: cell-based, human
[7] = tested on: myosin light chain 2 (p-MLC2); assay type: cell-based, human
FAPs [8] = assay type: cell-based, human; details: for increase in FAPs migration: vs untreated FAPs
FAPs [9] = assay type: cell-based, human; details: for increase in FAPs proliferation: vs untreated FAPs
dba/2J-mdx mice [10] = test: Grip strength test in dba/2J-mdx mice; assay type: in vivo, mouse; details: after six weeks of treatment, vs non-treated mice
FAPs [11] = assay type: cell-based, human; remark: listed apart in the source
RhoA-GTP = assay type: cell-based, human; details: DMD-FAPs, PDGF-AA 50 ng/ml 20 min, vs untreated FAPs

With `O=S(=O)(c1cccc2cnccc12)N1CCCNCC1` [Fasudil, 5-(1,4-diazepan-1-ylsulfonyl)isoquinoline] the “behaviour during the treatment period (adverse effects)” value (dba/2J-mdx mice [1]) was “did not experience any change in their behaviour”, the “body weight, treated vs untreated mice” value (dba/2J-mdx mice [1]) was “decrease in weight” and the “reduction in collagen-I area in the quadriceps” value (dba/2J-mdx mice [2]; 100 mg/kg/day orally 6 weeks) was 23%. The myofiber size (dba/2J-mdx mice [2]; treated vs non-treated mice) was “significant increase”, the “neutrophil population in quadriceps” value (dba/2J-mdx mice [2]; treated vs non-treated mice) was “trend towards a reduction” and the “number of T and B cells in quadriceps” value (dba/2J-mdx mice [2]; treated vs non-treated mice) was “no changes”. The “decrease in the PDGFRα area (number of FAPs) in quadriceps” value (dba/2J-mdx mice [2]; treated vs non-treated, not significant) was 42%, the “reduction of quadriceps area stained with F4/80 (macrophages)” value (dba/2J-mdx mice [2]; treated vs untreated mice) was 74% and the cell viability (FAPs [3]) was “did not affect cell viability; also recorded: neither C3-exoenzyme nor fasudil had any effect on cell viability”. The “TNFα, IL-4, IL-17, CXCL1, CXCL2, CXCL10, CCL2, CCL3 or CCL17 cytokine levels” value (dba/2J-mdx mice [4]) was “reduction”, the “RhoA pathway downstream effector targets (ROCK2, LIMK2, FHOD1)” value (RhoA pathway; 100 mg/kg/day orally 6 weeks) was “inhibited RhoA pathway” and the “protein expression of LIMK2” value (RhoA pathway; treated vs untreated mice) was “significantly reduced”. For the same compound, the “protein expression of MLC2” value (RhoA pathway; treated vs untreated mice) was “significantly reduced”, the “decrease in the number of F4/80 positive cells” value (dba/2J-mdx mice [5]; flow cytometry, treated vs non-treated mice) was 18.3% and the “reduction in the expression levels of CD163 marker in macrophages” value (dba/2J-mdx mice [5]; skeletal muscles of treated mice) was 31%. The “reduction in the expression levels of CD206 marker in macrophages” value (dba/2J-mdx mice [5]; treated mice) was 18%, the “expression levels or number of CD209 cells (M2 macrophages)” value (dba/2J-mdx mice [5]; treated vs non-treated mice) was “did not observe any difference” and the “percentage of positive cells or expression of CD80 and DR (M1 markers)” value (dba/2J-mdx mice [5]; treated vs non-treated mice) was “did not observe changes”. The “lower number of CD163+ cells” value (dba/2J-mdx mice [5]; vs non-treated mice) was 3%, the “lower number of CD206+ cells” value (dba/2J-mdx mice [5]; vs non-treated mice) was 10% and the “release of collagen-I to the culture medium” value (FAPs [6]) was “reversed”. For the same compound, the “effect on PDGF-AA-induced MLC2 phosphorylation” value [7] was “reversed”, the “reduction of migration rate” value (FAPs [8]) was 2.43 fold and 4 fold and the “decrease in proliferation rate” value (FAPs [9]) was 2.6 fold. For the same compound, the proliferation inhibition (FAPs [9]) was “lack of proliferation inhibition”, the “increase in forelimb strength” value (dba/2J-mdx mice [10]) was 1.76 fold and the “polymerization of intracellular actin filaments” value (FAPs [11]) was “impinged”.

In the case of PDGF-AA, the cell viability (FAPs [3]) is reported as “did not affect cell viability”, the “increase in the RhoA-GTP levels” value (RhoA-GTP) is reported as 1.88 fold and the “release of collagen-I to the culture medium” value (FAPs [6]; 4 days treatment) is reported as “increased non-significantly”. The “increase in MLC2 phosphorylation” value ([7]; DMD-FAPs treated with PDGF-AA) was 2.3 fold, the “increase in FAPs migration” value (FAPs [8]; 48 hours) was 2.48 fold and the “increase in FAPs migration” value (FAPs [8]; 72 hours) was 3.37 fold. The “increase in FAPs proliferation” value (FAPs [9]; 48 hours) was 3.6 fold, the “increase in FAPs proliferation” value (FAPs [9]; 72 hours) was 6 fold and the “polymerization of intracellular actin filaments” value (FAPs [11]) was “induced polymerization”.
